Assay results reported in patent US20110301142A1, “ANTAGONISTS OF LYSOPHOSPHATIDIC ACID RECEPTORS” (priority 2008, published 2011).

Experiments:
human LPA1 = biological target: T1, human LPA1 (Homo sapiens, UniProt Q92633); assay: LPA1 calcium flux assay (HLPA1 Ca Flux); assay type: cell-based; settings: Human LPA1 expressing CHO cells, stimulated with 10 nM LPA
T1 construct: the full-length cDNA for human LPA1 was obtained by PCR of the reverse transcription reaction; expressed in transfected cells
Protocol: A 1.1 kb cDNA encoding the human LPA1 receptor was cloned from human lung. Human lung RNA (Clontech Laboratories, Inc. USA) was reverse transcribed using the RETROscript kit (Ambion, Inc.) and the full-length cDNA for human LPA1 was obtained by PCR of the reverse transcription reaction. The nucleotide sequence of the cloned human LPA1 was determined by sequencing and confirmed to be identical to the published human LPA1 sequence (An et al. Biochem. Biophys. Res. Commun. 231:619 (1997). The cDNA was cloned into the pcDNAS/FRT expression plasmid and transfected in CHO cells using lipofectamine 2000 (Invitrogen Corp., USA). Clones stably expressing human LPA1 were selected using hygromycin and identified as cells that show Ca-influx in response to LPA.
(§1) Human LPA1 or LPA3 expressing CHO cells are seeded at 20,000-45,000 cells per well in a 96-well poly-D-lysine coated plate one or two days before the assay. Prior to the assay, the cells are washed once with PBS and then cultured in serum-free media overnight. On the day of the assay, a calcium indicator dye (Calcium 4, Molecular Devices) in assay buffer (HBSS with Ca^2+ and Mg^2+ and containing 20 mM Hepes and 0.3% fatty-acid free human serum albumin) is added to each well and incubation continued for 1 hour at 37° C. 10 μl of test compounds in 2.5% DMSO are added to the cells and incubation continued at room temperature for 30 minutes. Cells are the stimulated by the addition of 10 nM LPA and intracellular Ca^2+ measured using the Flexstation 3 (Molecular Devices). IC50s are determined using Graphpad prism analysis of drug titration curves.

human LPA3 = biological target: T2, human LPA3 (Homo sapiens, UniProt Q9UBY5); assay: LPA3 calcium flux assay; assay type: cell-based; settings: Human LPA3 expressing CHO cells, stimulated with 10 nM LPA; read-out: HLPA3 Ca Flux IC50
T2 construct: The full-length cDNA fragment for human LPA3 was obtained by PCR from the vector; expressed in transfected cells; cDNA from the Missouri S&T cDNA Resource Center
T2 sequence (Q9UBY5 1-353): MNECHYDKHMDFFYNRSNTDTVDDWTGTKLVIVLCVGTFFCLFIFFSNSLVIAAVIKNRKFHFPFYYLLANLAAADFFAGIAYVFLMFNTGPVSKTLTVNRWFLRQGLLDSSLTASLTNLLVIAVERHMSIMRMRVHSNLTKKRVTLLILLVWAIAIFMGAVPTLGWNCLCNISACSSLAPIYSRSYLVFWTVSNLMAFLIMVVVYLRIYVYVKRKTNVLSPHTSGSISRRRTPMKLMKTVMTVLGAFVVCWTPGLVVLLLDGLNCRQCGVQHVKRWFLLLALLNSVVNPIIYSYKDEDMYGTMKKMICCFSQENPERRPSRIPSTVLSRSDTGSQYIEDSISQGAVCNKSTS
Protocol: A vector containing the human LPA3 receptor cDNA was obtained from the Missouri S&T cDNA Resource Center (www.cdna.org). The full-length cDNA fragment for human LPA3 was obtained by PCR from the vector. The nucleotide sequence of the cloned human LPA3 was determined by sequencing and confirmed to be identical to the published human LPA3 sequence (NCBI accession number NM 012152). The cDNA was cloned into the pcDNA5/FRT expression plasmid and transfected in CHO cells using lipofectamine 2000 (Invitrogen Corp., USA). Clones stably expressing human LPA3 were selected using hygromycin and identified as cells that show Ca-influx in response to LPA.
as §1

T1 sequence (Q92633 whole entry): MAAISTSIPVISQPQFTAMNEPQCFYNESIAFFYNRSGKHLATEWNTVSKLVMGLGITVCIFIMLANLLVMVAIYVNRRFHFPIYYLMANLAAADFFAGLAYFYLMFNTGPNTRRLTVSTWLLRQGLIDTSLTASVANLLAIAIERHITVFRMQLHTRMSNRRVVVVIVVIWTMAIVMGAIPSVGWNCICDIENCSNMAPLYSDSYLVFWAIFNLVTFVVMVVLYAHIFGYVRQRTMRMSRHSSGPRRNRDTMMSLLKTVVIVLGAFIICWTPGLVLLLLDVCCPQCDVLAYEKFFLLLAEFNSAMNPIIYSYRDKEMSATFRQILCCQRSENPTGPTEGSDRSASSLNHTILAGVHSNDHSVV

SMILES | IC50 (human LPA1) [nM] | IC50 (human LPA3) [nM]
Cc1noc(-c2ccc(Cn3cnc(C(=O)O)n3)cc2)c1NC(=O)OC(C)c1ccccc1Cl (stereo not drawn) [Compound 1-1, 1-(4-{4-[1-(2-Chloro-phenyl)-ethoxycarbonylamino]-3-methyl-isoxazol-5-yl}-benzyl)-1H-[1,2,4]triazole-3-carboxylic acid] | < 300 | 1000 to 50000
Cc1noc(-c2ccc(Cn3cncc3C(=O)O)cc2)c1NC(=O)OC(C)c1ccccc1Cl (stereo not drawn) [Compound 1-3, 3-(4-{4-[1-(2-Chloro-phenyl)-ethoxycarbonylamino]-3-methyl-isoxazol-5-yl}-benzyl)-3H-1-imidazole-4-carboxylic acid] | < 300 | 1000 to 50000
Cc1noc(-c2ccc(Cc3cccc(C(=O)O)c3)cc2)c1NC(=O)OC(C)c1ccccc1Cl (stereo not drawn) [Compound 1-5, 3-(4-{4-[1-(2-Chloro-phenyl)-ethoxycarbonylamino]-3-methyl-isoxazol-5-yl}-benzyl)-benzoic acid] | < 300 | 1000 to 50000
Cc1noc(-c2ccc(Cc3ccc(C(=O)O)s3)cc2)c1NC(=O)OC(C)c1ccccc1Cl (stereo not drawn) [Compound 1-15, 5-(4-{4-[1-(2-Chloro-phenyl)-ethoxycarbonylamino]-3-methyl-isoxazol-5-yl}-benzyl)-thiophene-2-carboxylic acid] | < 300 | 1000 to 50000
Cc1noc(-c2ccc(CSc3ccc(CC(=O)O)cc3)cc2)c1NC(=O)OC(C)c1ccccc1Cl (stereo not drawn) [Compound 1-17, [4-(4-{4-[1-(2-Chloro-phenyl)-ethoxycarbonylamino]-3-methyl-isoxazol-5-yl}-benzylsulfanyl)-phenyl]-acetic acid] | < 300 | 1000 to 50000
Cc1noc(-c2ccc(CSc3ccccc3CC(=O)O)cc2)c1NC(=O)OC(C)c1ccccc1Cl (stereo not drawn) [Compound 1-19, [2-(4-{4-[1-(2-Chloro-phenyl)-ethoxycarbonylamino]-3-methyl-isoxazol-5-yl}-benzylsulfanyl)-phenyl]acetic acid] | < 300 | 1000 to 50000
Cc1noc(-c2ccc(-c3ccc(CC(=O)O)cc3)cc2)c1NC(=O)OC(C)c1ccccc1C(F)(F)F (stereo not drawn) [Compound 1-23, (4′-{3-Methyl-4-[1-(2-trifluoromethyl-phenyl)-ethoxycarbonylamino]-isoxazol-5-yl}-biphenyl-4-yl)-acetic acid] | < 300 | 1000 to 50000
Cc1noc(-c2ccc(-c3ccc(CC(=O)O)cc3)cc2)c1NC(=O)OC(C)c1ccccc1F (stereo not drawn) [Compound 1-26, (4′-{4-[1-(2-Fluoro-phenyl)-ethoxycarbonylamino]-3-methyl-isoxazol-5-yl}-biphenyl-4-yl)-acetic acid] | < 300 | 1000 to 50000
Cc1noc(-c2ccc(-c3ccc(CC(=O)O)cc3)cc2)c1NC(=O)OC(C)c1cccc(Br)c1 (stereo not drawn) [Compound 1-27, (4′-{4-[1-(3-Bromo-phenyl)-ethoxycarbonylamino]-3-methyl-isoxazol-5-yl}-biphenyl-4-yl)-acetic acid] | < 300 | 1000 to 50000
Cc1noc(-c2csc(-c3ccc(CC(=O)O)cc3)n2)c1NC(=O)O[C@H](C)c1ccccc1F [Compound 3-3, [4-(4-{4-[(R)-1-(2-Fluoro-phenyl)-ethoxycarbonylamino]-3-methyl-isoxazol-5-yl}-thiazol-2-yl)-phenyl]-acetic acid] | 1000 to 50000 | 
Cc1noc(-c2csc(-c3cccc(CC(=O)O)c3)n2)c1NC(=O)O[C@H](C)c1ccccc1F [Compound 3-6, [3-(4-{4-[(R)-1-(2-Fluoro-phenyl)-ethoxycarbonylamino]-3-methyl-isoxazol-5-yl}-thiazol-2-yl)-phenyl]acetic acid] | 300 to 1000 | 

Now from value to compound:

IC50 (human LPA1) [nM] | IC50 (human LPA3) [nM] | SMILES
< 300 | 300 to 1000 | Cc1noc(-c2ccc(-c3ccc(C(C)C(=O)O)cc3)cc2)c1NC(=O)O[C@H](C)c1ccccc1Cl (single isomer, unassigned) [Compound 1-127]
< 300 | 1000 to 50000 | Cc1noc(-c2ccc(-c3ccc(C(C)C(=O)O)cc3)cc2)c1NC(=O)O[C@H](C)c1ccccc1Cl (single isomer, unassigned) [Compound 1-128]
< 300 | 1000 to 50000 | Cc1noc(-c2ccc(Cn3ncc(C(=O)O)c3C(F)(F)F)cc2)c1NC(=O)OC(C)c1ccccc1Cl (stereo not drawn) [Compound 1-4, 1-(4-{4-[1-(2-Chloro-phenyl)-ethoxycarbonylamino]-3-methyl-isoxazol-5-yl}-benzyl)-5-trifluoromethyl-1H-pyrazole-4-carboxylic acid]
300 to 1000 | 1000 to 50000 | COc1ccc(CC(=O)O)cc1Cc1ccc(-c2onc(C)c2NC(=O)OC(C)c2ccccc2Cl)cc1 (stereo not drawn) [Compound 1-7, [3-(4-{4-[1-(2-Chloro-phenyl)-ethoxycarbonylamino]-3-methyl-isoxazol-5-yl}-benzyl)-4-methoxy-phenyl]-acetic acid]
< 300 | 1000 to 50000 | Cc1noc(-c2ccc(Cn3cc(C(=O)O)cn3)cc2)c1NC(=O)OC(C)c1ccccc1Cl (stereo not drawn) [Compound 1-9, 1-(4-{4-[1-(2-Chloro-phenyl)-ethoxycarbonylamino]-3-methyl-isoxazol-5-yl}-benzyl)-1H-pyrazole-4-carboxylic acid]
< 300 | 1000 to 50000 | Cc1noc(-c2ccc(COc3cccc(C(=O)O)c3)cc2)c1NC(=O)OC(C)c1ccccc1Cl (stereo not drawn) [Compound 1-12, 3-(4-{4-[1-(2-Chloro-phenyl)-ethoxycarbonylamino]-3-methyl-isoxazol-5-yl}-benzyloxy)-benzoic acid]
< 300 | 1000 to 50000 | Cc1noc(-c2ccc(Cc3ccc(CC(=O)O)cc3)cc2)c1NC(=O)OC(C)c1ccccc1Cl (stereo not drawn) [Compound 1-20, [4-(4-{4-[1-(2-Chloro-phenyl)-ethoxycarbonylamino]-3-methyl-isoxazol-5-yl}-benzyl)-phenyl]-acetic acid]
< 300 | 1000 to 50000 | Cc1noc(-c2ccc(Cc3cccc(CC(=O)O)c3)cc2)c1NC(=O)OC(C)c1ccccc1Cl (stereo not drawn) [Compound 1-21, [3-(4-{4-[1-(2-Chloro-phenyl)-ethoxycarbonylamino]-3-methyl-isoxazol-5-yl}-benzyl)-phenyl]acetic acid]
300 to 1000 | 1000 to 50000 | Cc1noc(-c2ccc(-c3ccc(CC(=O)O)cc3)cc2)c1NC(=O)OC(C)c1cccc(C(F)(F)F)c1 (stereo not drawn) [Compound 1-24, (4′-{3-Methyl-4-[1-(3-trifluoromethyl-phenyl)-ethoxycarbonylamino]-isoxazol-5-yl}-biphenyl-4-yl)-acetic acid]
< 300 | 1000 to 50000 | Cc1noc(-c2ccc(-c3ccc(CC(=O)O)cc3)cc2)c1NC(=O)OC(C)c1ccc(Cl)cc1Cl (stereo not drawn) [Compound 1-25, (4′-{4-[1-(2,4-Dichloro-phenyl)-ethoxycarbonylamino]-3-methyl-isoxazol-5-yl}-biphenyl-4-yl)-acetic acid]
< 300 | > 50000 | COc1ccccc1C(C)OC(=O)Nc1c(C)noc1-c1ccc(-c2ccc(CC(=O)O)cc2)cc1 (stereo not drawn) [Compound 1-28, (4′-{4-[1-(2-Methoxy-phenyl)-ethoxycarbonylamino]-3-methyl-isoxazol-5-yl}-biphenyl-4-yl)-acetic acid]
300 to 1000 | 1000 to 50000 | COc1ccc(CC(=O)O)cc1-c1cccc(-c2onc(C)c2NC(=O)OC(C)c2ccccc2Cl)c1 (stereo not drawn) [Compound 1-30, (3′-{4-[1-(2-Chloro-phenyl)-ethoxycarbonylamino]-3-methyl-isoxazol-5-yl}-6-methoxy-biphenyl-3-yl)-acetic acid]
1000 to 50000 |  | Cc1noc(-c2csc(-c3ccccc3CC(=O)O)n2)c1NC(=O)O[C@H](C)c1ccccc1F [Compound 3-5, [2-(4-{4-[(R)-1-(2-Fluoro-phenyl)-ethoxycarbonylamino]-3-methyl-isoxazol-5-yl}-thiazol-2-yl)-phenyl]acetic acid]
